PMC7232190, “FDA-Approved Drugs Efavirenz, Tipranavir, and Dasabuvir Inhibit Replication of Multiple Flaviviruses in Vero Cells” (Microorganisms, 2020)

Experiments:
[1] = Cytotoxicity assay (Cell Counting Kit-8); format: cell-based, Human; conditions: human, 72 h treatment, 0-100 µM
Method: (§1) For detailed cytotoxicity studies, Vero, HBCA, and UKF-NB-4 cells were seeded onto 96-well plates at a density of 10,000 cells per well and incubated for 24 h at 37 °C before being used in the experiment to form a confluent monolayer. After the incubation, tested compounds were added to the cells at concentrations of 0, 3.125, 6.25, 12.5, 25, 50, 75, and 100 µM, and treated under the same regime as during antiviral testing; i.e., pretreatment for 24 h with culture medium containing appropriate drug concentrations, then the medium was exchanged with fresh compound-containing medium. […] The 50% cytotoxic concentration (CC50) values, representing the concentration of compound that reduced cell viability by 50%, were calculated using GraphPad Prism (version 7.04, GraphPad Software, San Diego, CA, USA) as a nonlinear regression (inhibitor vs. normalized response, variable slope).

[2] = system: UKF-NB-4 cells; experiment: Cytotoxicity assay (Cell Counting Kit-8); format: cell-based, Human
Method: as §1

[3] = system: HBCA cells; experiment: Cytotoxicity assay (Cell Counting Kit-8); format: cell-based, Human
Method: as §1

[4] = system: ZIKV (Paraiba_01); experiment: Anti-ZIKV activity in human neural cells, pretreatment assay, HBCA cells; format: cell-based, Zika virus; conditions: 48 h
[5] = system: HCV genotype 1b replicon; design: method as in PMID 25534735; conditions: HCV subgenomic replicon; cited from earlier work
[6] = system: HCV genotype 1a replicon; design: method as in PMID 25534735; conditions: HCV subgenomic replicon; cited from earlier work
[7] = system: flaviviral surface E antigen (all VBFs tested); experiment: Immunofluorescence staining of viral antigen in infected Vero cells; format: cell-based; conditions: 48 h p.i., 0, 40, 50 µM dasabuvir or efavirenz, 0, 75, 100 µM tipranavir
Method: The results obtained from antiviral assays were confirmed using a cell-based flavivirus immunostaining assay with a mouse monoclonal antibody that specifically recognizes the flavivirus group surface antigen, as described previously. Briefly, Vero cells seeded onto 96-well plates were treated with the test compound (0, 40, or 50 μM dasabuvir or efavirenz; 0, 75, or 100 μM tipranavir) and infected with the individual viruses at a multiplicity of infection of 0.1. After incubation at 37 °C for 48 h, the cell monolayers were fixed with cold acetone-methanol (1:1), blocked with 10% fetal bovine serum, and incubated with the flavivirus antibody (1:250; Sigma-Aldrich, Prague, Czech Republic). After washing, the cells were labeled with an anti-mouse goat secondary antibody conjugated with fluorescein isothiocyanate (FITC; 1:500) and counterstained with DAPI (4′,6-diamidino-2-phenylindole; 1 μg/mL) to allow visualization of the cell nuclei. The fluorescence signal was recorded with an Olympus IX71 epifluorescence microscope and processed by ImageJ software.

[8] = system: ZIKV (Paraiba_01); experiment: Anti-ZIKV activity in human neural cells, pretreatment assay, UKF-NB-4 cells; format: cell-based, Zika virus; conditions: 48 h
[9] = system: TBEV (Hypr); experiment: microbe, parasite or virus in culture; format: cell-based, tick-borne encephalitis virus; conditions: for EC50: Tick-borne encephalitis virus, Vero
[10] = Cytotoxicity assay (Cell Counting Kit-8); format: cell-based; conditions: African green monkey; Vero cells, 72 h treatment, 0-100 µM
Method: as §1

[11] = system: ZIKV (Paraiba_01); experiment: microbe, parasite or virus in culture; format: cell-based, Zika virus; conditions: Vero cells; for EC50: Zika virus, pretreatment 24 h, 48 h incubation, plaque assay
[12] = system: WNV (Eg101); experiment: microbe, parasite or virus in culture; format: cell-based, West Nile virus; conditions: Vero cells; for EC50: pretreatment 24 h, 48 h incubation, plaque assay
[13] = system: ZIKV (strain MR-766); experiment: Inhibition of ZIKV-mediated cytopathic effect in a simultaneous treatment assay, Vero cells; conditions: 50 µM, 48 h
[14] = system: WNV (13-104); experiment: microbe, parasite or virus in culture; format: cell-based, West Nile virus; conditions: Vero cells; for EC50: West Nile virus, pretreatment 24 h, 48 h incubation, plaque assay
[15] = system: ZIKV (strain MR-766); experiment: Anti-ZIKV activity in a post-treatment assay, plaque assay, Vero cells; format: cell-based, Zika virus; conditions: 50 µM, 48 h
[16] = system: ZIKV (MR-766); experiment: microbe, parasite or virus in culture; format: cell-based, Zika virus; conditions: Vero cells; for EC50: Zika virus, pretreatment 24 h, 48 h incubation, plaque assay
[17] = system: ZIKV (strain MR-766); experiment: Anti-ZIKV activity in a simultaneous treatment assay, plaque assay, Vero cells; format: cell-based, Zika virus; conditions: 50 µM, 48 h
[18] = system: HIV; design: method as in PMID 21041916, PMID 18158073; conditions: H9 cells; read-out: EC90 (anti-HIV activity); cited from earlier work

| SMILES | CC50 at 72 h ([1]; HBCA cells) [µM] | CC50 at 72 h ([1]; UKF-NB-4 cells) [µM] | highest non-toxic (>90% viability of the treated cells) concentration [2] [µM] | highest non-toxic (>90% viability of the treated cells) concentration [3] [µM] | surface E antigen expression by all VBFs tested [7] | Selectivity Index (SI) (CC50/EC50) [9] | EC50 [9] [µM] | CC50 at 72 h [10] [µM] | Selectivity Index (SI) (CC50/EC50) [11] | EC50 [11] [µM] | Selectivity Index (SI) (CC50/EC50) [12] | EC50 ([12]; West Nile virus, Vero) [µM] | viability of the infected cells compared to uninfected controls (inhibition of ZIKV-mediated CPE) [13] [%] | Selectivity Index (SI) (CC50/EC50) [14] | EC50 [14] [µM] | anti-ZIKV effect, drug applied 2 h post-infection [15] | Selectivity Index (SI) (CC50/EC50) [16] | EC50 [16] [µM] | effect on ZIKV titer in the culture [17] | further results |
| --- | --- | --- | --- | --- | --- | --- | --- | --- | --- | --- | --- | --- | --- | --- | --- | --- | --- | --- | --- | --- |
| COc1c(-c2ccc3cc(NS(C)(=O)=O)ccc3c2)cc(-n2ccc(=O)[nH]c2=O)cc1C(C)(C)C [Dasabuvir, dasabuvir] | 26 | 21.3 | 6.25 | 12.5 | dose-dependent inhibition | 6.67 | 15.2 | 102 | 6.29 | 16.1 | 5.60 | 18.8 | > 90 | 6.48 | 15.7 | even stronger compared to 7-deaza-2′-C-methyladenosine | 6.54 | 15.5 | reduced ZIKV titer | effect on ZIKV replication in the cell culture ([4]; 12.5 µM): completely suppressed ZIKV replication; EC50 [5]: 1.8 nM; EC50 [6]: 7.7 nM; virus titer reduction in comparison with mock-treated control cells ([8]; highest concentration of the drug): approximately 1 log10 pfu/mL; EC50 [12]: 18.1 µM |
| O=C1Nc2ccc(Cl)cc2[C@@](C#CC2CC2)(C(F)(F)F)O1 [Efavirenz, efavirenz] | 16.7 | 31.9 | 12.5 | 3.125 | dose-dependent inhibition | 4.63 | 15.9 | 73.6 | 2.85 | 25.8 | 3.35 | 21.9 | > 90 | 4.50 | 16.3 | antiviral effect | 2.41 | 30.4 | reduced ZIKV titer | antiviral effect against ZIKV ([4]; any concentration tested): No antiviral effect; antiviral effect against ZIKV ([8]; any concentration tested): No antiviral effect |
| CCC[C@@]1(CCc2ccccc2)CC(O)=C([C@H](CC)c2cccc(NS(=O)(=O)c3ccc(C(F)(F)F)cn3)c2)C(=O)O1 [Tipranavir, tipranavir] | 34 | 89.2 | 50 | 12.5 | dose-dependent inhibition | 3.79 | 35.5 | > 100 | – | 29.9 | 4.12 | 32.7 | > 90 | 5.58 | 24.2 | even stronger compared to 7-deaza-2′-C-methyladenosine | 4.45 | 30.3 | reduced ZIKV titer | reduction of ZIKV replication in the HBCA culture ([4]; 12.5 µM): approx. 10^3 fold; EC90 [18]: 100 nM; antiviral effect against ZIKV (virus titer reduction) ([8]; 50 µM): approx. 10^3 fold |
| C[C@@H]1CCO[C@H]2Cn3cc(C(=O)NCc4ccc(F)cc4F)c(=O)c(O)c3C(=O)N12 [dolutegravir] | – | – | – | – | – | – | – | – | – | – | – | – | > 90 | – | – | – | – | – | – | – |
